Experimental data taken from ChEMBL document CHEMBL3352237, “Synthesis and biological evaluation of novel peptide BF2 as an antibacterial agent against clinical isolates of vancomycin-resistant enterococci” (J Med Chem, 2014).

Tests used:
Format in all cases: functional
Enterococcus faecium [1] = assay: Antibacterial activity against vancomycin-resistant Enterococcus faecium clinical isolate 5396 after overnight incubation by two-fold serial dilution method
Enterococcus faecium [2] = assay: Antibacterial activity against vancomycin-resistant Enterococcus faecium clinical isolate 12875 after overnight incubation by two-fold serial dilution method
Enterococcus faecalis [3] = assay: Antibacterial activity against vancomycin-resistant Enterococcus faecalis clinical isolate 7846 after overnight incubation by two-fold serial dilution method
Enterococcus faecalis [4] = assay: Antibacterial activity against vancomycin-resistant Enterococcus faecalis clinical isolate 27728 after overnight incubation by two-fold serial dilution method
Enterococcus faecium [5] = assay: Antibacterial activity against vancomycin-resistant Enterococcus faecium clinical isolate 151495 after overnight incubation by two-fold serial dilution method
Enterococcus faecium [6] = assay: Antibacterial activity against vancomycin-resistant Enterococcus faecium clinical isolate 27/221 after overnight incubation by two-fold serial dilution method
Enterococcus faecalis [7] = assay: Antibacterial activity against vancomycin-resistant Enterococcus faecalis clinical isolate 7670 after overnight incubation by two-fold serial dilution method
Enterococcus faecalis [8] = assay: Antibacterial activity against vancomycin-resistant Enterococcus faecalis clinical isolate 387702 after overnight incubation by two-fold serial dilution method
Enterococcus [9] = assay: Antibacterial activity against vancomycin-resistant Enterococcus ATCC 29212 after overnight incubation by two-fold serial dilution method
Enterococcus faecalis [10] = assay: Antibacterial activity against vancomycin-resistant Enterococcus faecalis clinical isolate 7077 after overnight incubation by two-fold serial dilution method
Enterococcus faecium [11] = assay: Antibacterial activity against vancomycin-resistant Enterococcus faecium clinical isolate 3864 after overnight incubation by two-fold serial dilution method
Enterococcus faecium [12] = assay: Antibacterial activity against vancomycin-resistant Enterococcus faecium clinical isolate 16115 after overnight incubation by two-fold serial dilution method
Enterococcus faecalis [13] = assay: Antibacterial activity against vancomycin-resistant Enterococcus faecalis clinical isolate 5648 after overnight incubation by two-fold serial dilution method
Enterococcus faecalis [14] = assay: Antibacterial activity against vancomycin-resistant Enterococcus faecalis clinical isolate 22626 after overnight incubation by two-fold serial dilution method
Enterococcus faecium [15] = assay: Antibacterial activity against vancomycin-resistant Enterococcus faecium clinical isolate 7/27 after overnight incubation by two-fold serial dilution method
Enterococcus faecium [16] = assay: Antibacterial activity against vancomycin-resistant Enterococcus faecium clinical isolate 147969 after overnight incubation by two-fold serial dilution method
Enterococcus faecium [17] = assay: Antibacterial activity against vancomycin-resistant Enterococcus faecium clinical isolate 27/16917 after overnight incubation by two-fold serial dilution method; settings: isolate 27/1691
Enterococcus faecium [18] = assay: Antibacterial activity against vancomycin-resistant Enterococcus faecium clinical isolate 29/203 after overnight incubation by two-fold serial dilution method
Enterococcus faecium [19] = assay: Antibacterial activity against vancomycin-resistant Enterococcus faecium clinical isolate 6/22 after overnight incubation by two-fold serial dilution method
Enterococcus faecium [20] = assay: Antibacterial activity against vancomycin-resistant Enterococcus faecium clinical isolate 30/48 after overnight incubation by two-fold serial dilution method
Enterococcus faecium [21] = assay: Antibacterial activity against vancomycin-resistant Enterococcus faecium clinical isolate 14643 after overnight incubation by two-fold serial dilution method
Enterococcus faecium [22] = assay: Antibacterial activity against vancomycin-resistant Enterococcus faecium clinical isolate 12/266 after overnight incubation by two-fold serial dilution method
Enterococcus faecium [23] = assay: Antibacterial activity against vancomycin-resistant Enterococcus faecium clinical isolate 31386 after overnight incubation by two-fold serial dilution method
Enterococcus faecium [24] = assay: Antibacterial activity against vancomycin-resistant Enterococcus faecium clinical isolate 31176 after overnight incubation by two-fold serial dilution method
Enterococcus faecalis [25] = assay: Antibacterial activity against vancomycin-resistant Enterococcus faecalis clinical isolate 22/203 after overnight incubation by two-fold serial dilution method
Enterococcus faecium [26] = assay: Antibacterial activity against vancomycin-resistant Enterococcus faecium clinical isolate 15/213 after overnight incubation by two-fold serial dilution method
Enterococcus faecalis [27] = assay: Antibacterial activity against vancomycin-resistant Enterococcus faecalis clinical isolate 5814 after overnight incubation by two-fold serial dilution method
Enterococcus faecium [28] = assay: Antibacterial activity against vancomycin-resistant Enterococcus faecium clinical isolate 10177 after overnight incubation by two-fold serial dilution method
Enterococcus faecalis [29] = assay: Antibacterial activity against vancomycin-resistant Enterococcus faecalis clinical isolate 21/235 after overnight incubation by two-fold serial dilution method
Enterococcus faecium [30] = assay: Antibacterial activity against vancomycin-resistant Enterococcus faecium clinical isolate 28/211 after overnight incubation by two-fold serial dilution method
Enterococcus [31] = assay: Antibacterial activity against vancomycin-resistant Enterococcus ATCC 51299 after overnight incubation by two-fold serial dilution method
Enterococcus faecalis [32] = assay: Antibacterial activity against vancomycin-resistant Enterococcus faecalis clinical isolate 6093 after overnight incubation by two-fold serial dilution method
Enterococcus faecium [33] = assay: Antibacterial activity against vancomycin-resistant Enterococcus faecium clinical isolate 8/224 after overnight incubation by two-fold serial dilution method
Enterococcus faecalis [34] = assay: Antibacterial activity against vancomycin-resistant Enterococcus faecalis clinical isolate 7079 after overnight incubation by two-fold serial dilution method
Enterococcus faecium [35] = assay: Antibacterial activity against vancomycin-resistant Enterococcus faecium clinical isolate 5484 after overnight incubation by two-fold serial dilution method
Enterococcus faecium [36] = assay: Antibacterial activity against vancomycin-resistant Enterococcus faecium clinical isolate 17301 after overnight incubation by two-fold serial dilution method
Enterococcus faecium [37] = assay: Antibacterial activity against vancomycin-resistant Enterococcus faecium clinical isolate 13246 after overnight incubation by two-fold serial dilution method
Enterococcus faecium [38] = assay: Antibacterial activity against vancomycin-resistant Enterococcus faecium clinical isolate 18906 after overnight incubation by two-fold serial dilution method
Enterococcus faecium [39] = assay: Antibacterial activity against vancomycin-resistant Enterococcus faecium clinical isolate 23/240 after overnight incubation by two-fold serial dilution method
Enterococcus faecium [40] = assay: Antibacterial activity against vancomycin-resistant Enterococcus faecium clinical isolate 16475 after overnight incubation by two-fold serial dilution method
Enterococcus faecalis [41] = assay: Antibacterial activity against vancomycin-resistant Enterococcus faecalis clinical isolate 5642 after overnight incubation by two-fold serial dilution method

H-RWRLLLLKRH-OH gave an MIC (Enterococcus faecium [1]) of 12.5 µg/mL, an MIC (Enterococcus faecium [2]) of 12.5 µg/mL and an MIC (Enterococcus faecalis [3]) of 12.5 µg/mL. It also gave an MIC (Enterococcus faecalis [4]) of 12.5 µg/mL, an MIC (Enterococcus faecium [5]) of 12.5 µg/mL and an MIC (Enterococcus faecium [6]) of 12.5 µg/mL. The MIC (Enterococcus faecalis [7]) was 12.5 µg/mL, the MIC (Enterococcus faecalis [8]) was 12.5 µg/mL and the MIC (Enterococcus [9]) was 12.5 µg/mL. For the same substance, the MIC (Enterococcus faecalis [10]) was 12.5 µg/mL, the MIC (Enterococcus faecium [11]) was 12.5 µg/mL and the MIC (Enterococcus faecium [12]) was 12.5 µg/mL. The MIC (Enterococcus faecalis [13]) was 12.5 µg/mL, the MIC (Enterococcus faecalis [14]) was 12.5 µg/mL and the MIC (Enterococcus faecium [15]) was 12.5 µg/mL. For the same substance, the MIC (Enterococcus faecium [16]) was 12.5 µg/mL, the MIC (Enterococcus faecium [17]) was 12.5 µg/mL and the MIC (Enterococcus faecium [18]) was 12.5 µg/mL. For the same substance, the MIC (Enterococcus faecium [19]) was 12.5 µg/mL, the MIC (Enterococcus faecium [20]) was 12.5 µg/mL and the MIC (Enterococcus faecium [21]) was 12.5 µg/mL. The MIC (Enterococcus faecium [22]) was 12.5 µg/mL, the MIC (Enterococcus faecium [23]) was 12.5 µg/mL and the MIC (Enterococcus faecium [24]) was 12.5 µg/mL. For the same substance, the MIC (Enterococcus faecalis [25]) was 12.5 µg/mL, the MIC (Enterococcus faecium [26]) was 12.5 µg/mL and the MIC (Enterococcus faecalis [27]) was 12.5 µg/mL. The MIC (Enterococcus faecium [28]) was 12.5 µg/mL, the MIC (Enterococcus faecalis [29]) was 12.5 µg/mL and the MIC (Enterococcus faecium [30]) was 12.5 µg/mL. The MIC (Enterococcus [31]) was 12.5 µg/mL, the MIC (Enterococcus faecalis [32]) was 12.5 µg/mL and the MIC (Enterococcus faecium [33]) was 12.5 µg/mL. For the same substance, the MIC (Enterococcus faecalis [34]) was 12.5 µg/mL, the MIC (Enterococcus faecium [35]) was 12.5 µg/mL and the MIC (Enterococcus faecium [36]) was 12.5 µg/mL. For the same substance, the MIC (Enterococcus faecium [37]) was 12.5 µg/mL, the MIC (Enterococcus faecium [38]) was 12.5 µg/mL and the MIC (Enterococcus faecium [39]) was 12.5 µg/mL. For the same substance, the MIC (Enterococcus faecium [40]) was 12.5 µg/mL and the MIC (Enterococcus faecalis [41]) was 12.5 µg/mL.

For H-RWRLLLLLKRH-OH, the MIC (Enterococcus faecium [1]) was 25 µg/mL, the MIC (Enterococcus faecium [2]) was 25 µg/mL and the MIC (Enterococcus faecalis [3]) was 25 µg/mL. The MIC (Enterococcus faecalis [4]) was 25 µg/mL, the MIC (Enterococcus faecium [5]) was 25 µg/mL and the MIC (Enterococcus faecium [6]) was 25 µg/mL. The MIC (Enterococcus faecalis [7]) was 25 µg/mL, the MIC (Enterococcus faecalis [8]) was 25 µg/mL and the MIC (Enterococcus [9]) was 25 µg/mL. The MIC (Enterococcus faecalis [10]) was 25 µg/mL, the MIC (Enterococcus faecium [11]) was 25 µg/mL and the MIC (Enterococcus faecium [12]) was 25 µg/mL. For the same substance, the MIC (Enterococcus faecalis [13]) was 25 µg/mL, the MIC (Enterococcus faecalis [14]) was 25 µg/mL and the MIC (Enterococcus faecium [15]) was 25 µg/mL. It also gave an MIC (Enterococcus faecium [16]) of 25 µg/mL, an MIC (Enterococcus faecium [17]) of 25 µg/mL and an MIC (Enterococcus faecium [18]) of 25 µg/mL. For the same substance, the MIC (Enterococcus faecium [19]) was 25 µg/mL, the MIC (Enterococcus faecium [20]) was 25 µg/mL and the MIC (Enterococcus faecium [21]) was 25 µg/mL. The MIC (Enterococcus faecium [22]) was 25 µg/mL, the MIC (Enterococcus faecium [23]) was 25 µg/mL and the MIC (Enterococcus faecium [24]) was 25 µg/mL. The MIC (Enterococcus faecalis [25]) was 25 µg/mL, the MIC (Enterococcus faecium [26]) was 25 µg/mL and the MIC (Enterococcus faecalis [27]) was 25 µg/mL. For the same substance, the MIC (Enterococcus faecium [28]) was 25 µg/mL, the MIC (Enterococcus faecalis [29]) was 25 µg/mL and the MIC (Enterococcus faecium [30]) was 25 µg/mL. It also gave an MIC (Enterococcus [31]) of 25 µg/mL, an MIC (Enterococcus faecalis [32]) of 25 µg/mL and an MIC (Enterococcus faecium [33]) of 25 µg/mL. The MIC (Enterococcus faecalis [34]) was 25 µg/mL, the MIC (Enterococcus faecium [35]) was 25 µg/mL and the MIC (Enterococcus faecium [36]) was 25 µg/mL. It also gave an MIC (Enterococcus faecium [37]) of 25 µg/mL, an MIC (Enterococcus faecium [38]) of 25 µg/mL and an MIC (Enterococcus faecium [39]) of 25 µg/mL. For the same substance, the MIC (Enterococcus faecium [40]) was 25 µg/mL and the MIC (Enterococcus faecalis [41]) was 25 µg/mL.
